Results as given in US20260138958A1, “SUBSTITUTED N-PHENYLURACILS AND SALTS THEREOF, AND USE THEREOF AS HERBICIDAL ACTIVE SUBSTANCES” (Bayer Aktiengesellschaft, priority 2022, published 2026).

What was measured:
Assay type in all cases: in vivo
[1] = test system: Triticum aestivum (TRZAS); test: Post-emergence crop plant compatibility, greenhouse pot test; conditions: Triticum aestivum, in vivo
How it was run: (§1)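 Crops grown in sandy loam in the greenhouse were sprayed post-emergence at the one-leaf stage, 2–3 weeks after sowing, with WP or EC formulations plus 0.5% additive at 600 l/ha water. Damage was rated visually after about 3 weeks against untreated controls (0% = like control, 100% = dead).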

[2] = test system: harmful plants; test: Post-emergence herbicidal action, summary statements over several weeds; conditions: 20 g or less per hectare, ALOMY, ECHCG, AVEFA, VERPE
Method: (§2) Seeds of monocotyledonous and dicotyledonous weeds and crop plants were placed in sandy loam in plastic or wood-fibre pots, covered with soil and cultivated in a greenhouse under controlled growth conditions. 2 to 3 weeks after sowing, the test plants were treated at the one-leaf stage. The compounds of the invention, formulated in the form of wettable powders (WP) or as emulsion concentrates (EC), were then sprayed onto the green parts of the plants as aqueous suspension or emulsion with addition of 0.5% additive at a water application rate of 600 l/ha (converted). After the test plants had been kept in the greenhouse under optimum growth conditions for about 3 weeks, the activity of the preparations was rated visually in comparison to untreated controls. For example, 100% activity=the plants have died, 0% activity=like control plants.

[3] = test system: Digitaria sanguinalis (DIGSA); test: Post-emergence herbicidal action, greenhouse pot test
How it was run: (§3)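 Post-em greenhouse pots, sandy loam; one-leaf stage (2–3 wk after sowing); WP/EC spray, aq. suspension/emulsion + 0.5% additive, 600 l/ha; optimum conditions ~3 wk; visual % activity vs untreated (100% = dead).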

[4] = test system: Viola tricolor (VIOTR); test: as above; conditions: for pest or weed control at 20 g/ha: Viola tricolor, 504 h, read-out: Post-emergence effect at 20 g/ha against VIOTR in %
How it was run: as §3

[5] = test system: Pharbitis purpurea (PHBPU); test: as above; conditions: for pest or weed control at 5 g/ha / pest or weed control at 20 g/ha: Ipomoea purpurea, 504 h; for pest or weed control at 5 g/ha: read-out: Post-emergence effect at 5 g/ha against PHBPU in %; for pest or weed control at 20 g/ha: read-out: Post-emergence effect at 20 g/ha against PHBPU in %
How it was run: as §3

[6] = test system: Bassia scoparia (KCHSC); test: as above
How it was run: as §3

[7] = test system: Polygonum convolvulus (POLCO); test: as above; conditions: Fallopia convolvulus, 504 h; for pest or weed control at 5 g/ha: read-out: Post-emergence effect at 5 g/ha against POLCO in %; for pest or weed control at 20 g/ha: read-out: Post-emergence effect at 20 g/ha against POLCO in %
How it was run: as §3

[8] = test system: Alopecurus myosuroides (ALOMY); test: as above; conditions: for pest or weed control at 20 g/ha: Alopecurus myosuroides, 504 h, read-out: Post-emergence effect at 20 g/ha against ALOMY in %
How it was run: as §3

[9] = test system: Abutilon theophrasti (ABUTH); test: as above; conditions: for pest or weed control at 5 g/ha / pest or weed control at 20 g/ha: Abutilon theophrasti, 504 h; for pest or weed control at 5 g/ha: read-out: Post-emergence effect at 5 g/ha against ABUTH in %; for pest or weed control at 20 g/ha: read-out: Post-emergence effect at 20 g/ha against ABUTH in %
How it was run: as §3

[10] = test system: Amaranthus retroflexus (AMARE); test: as above; conditions: Amaranthus retroflexus, 504 h; for pest or weed control at 1.25 g/ha: read-out: Post-emergence effect at 1.25 g/ha against AMARE in %; for pest or weed control at 5 g/ha: read-out: Post-emergence effect at 5 g/ha against AMARE in %; for pest or weed control at 20 g/ha: read-out: Post-emergence effect at 20 g/ha against AMARE in %
How it was run: as §3

[11] = test system: Echinochloa crus-galli (ECHCG); test: as above; conditions: for pest or weed control at 20 g/ha: Echinochloa crus-galli, 504 h, read-out: Post-emergence effect at 20 g/ha against ECHCG in %
How it was run: as §3

[12] = test system: Tripleurospermum inodorum (MATIN); test: as above; conditions: for pest or weed control at 20 g/ha: Tripleurospermum inodorum, 504 h, read-out: Post-emergence effect at 20 g/ha against MATIN in %
How it was run: as §3

[13] = test system: Veronica persica (VERPE); test: as above; conditions: for pest or weed control at 5 g/ha / pest or weed control at 20 g/ha: Veronica persica, 504 h; for pest or weed control at 5 g/ha: read-out: Post-emergence effect at 5 g/ha against VERPE in %; for pest or weed control at 20 g/ha: read-out: Post-emergence effect at 20 g/ha against VERPE in %
How it was run: as §3

[14] = test system: Setaria viridis (SETVI); test: as above; conditions: for pest or weed control at 5 g/ha / pest or weed control at 20 g/ha: Setaria viridis, 504 h; for pest or weed control at 5 g/ha: read-out: Post-emergence effect at 5 g/ha against SETVI in %; for pest or weed control at 20 g/ha: read-out: Post-emergence effect at 20 g/ha against SETVI in %
How it was run: as §3

[15] = test system: crop plants; test: Post-emergence crop plant compatibility, summary statements over several crops; conditions: 5 g or less per hectare, ORYSA, ZEAMX, TRZAS
Method: as §2
The observed effects on selected crop plants are reported here in comparison to the untreated controls (values in %).

[16] = test system: Zea mays (ZEAMX); test: Post-emergence crop plant compatibility, greenhouse pot test; conditions: Zea mays, in vivo
How it was run: as §1

[17] = test system: Oryza sativa (ORYSA); test: as above; conditions: Oryza sativa, in vivo
How it was run: as §1

Row | SMILES | Post-emergence effect at 1.25 g/ha against TRZAS in % [1] [%] | Post-emergence effect at 1.25 g/ha against VIOTR in % [4] [%] | Post-emergence effect at 5 g/ha against VIOTR in % [4] [%] | pest or weed control at 20 g/ha [4] [%] | pest or weed control at 5 g/ha [5] [%] | pest or weed control at 20 g/ha [5] [%] | pest or weed control at 5 g/ha [7] [%] | pest or weed control at 20 g/ha [7] [%] | pest or weed control at 20 g/ha [8] [%] | Post-emergence effect at 1.25 g/ha against ABUTH in % [9] [%] | pest or weed control at 5 g/ha [9] [%] | pest or weed control at 20 g/ha [9] [%] | pest or weed control at 1.25 g/ha [10] [%] | pest or weed control at 5 g/ha [10] [%] | pest or weed control at 20 g/ha [10] [%] | Post-emergence effect at 1.25 g/ha against ECHCG in % [11] [%] | Post-emergence effect at 5 g/ha against ECHCG in % [11] [%] | pest or weed control at 20 g/ha [11] [%] | pest or weed control at 20 g/ha [12] [%] | pest or weed control at 5 g/ha [13] [%] | also measured
1 | Cn1c(C(F)(F)F)cc(=O)n(-c2cc(Oc3ccccc3OCC(=O)OCC3CCCCC3)c(Cl)cc2F)c1=O [I.7-14] | 20 | 100 | 100 | 100 | 100 | 100 | 100 | 100 | 100 | 100 | 100 | 100 | 100 | 100 | 100 | 90 | 100 | 100 | 90 | 100 | herbicidal efficacy by comparison with a-27, a-29 or a generically encompassed structure (WO2002/098227) [2]: distinctly improved herbicidal efficacy; Post-emergence effect at 5 g/ha against DIGSA in % ([3]; 5 g/ha): 100%; Post-emergence effect at 20 g/ha against DIGSA in % ([3]; 20 g/ha): 100%; Post-emergence effect at 1.25 g/ha against PHBPU in % ([5]; 1.25 g/ha): 100%; Post-emergence effect at 1.25 g/ha against KCHSC in % ([6]; 1.25 g/ha): 100%; Post-emergence effect at 5 g/ha against KCHSC in % ([6]; 5 g/ha): 100%; Post-emergence effect at 20 g/ha against KCHSC in % ([6]; 20 g/ha): 100%; Post-emergence effect at 1.25 g/ha against VERPE in % ([13]; 1.25 g/ha): 100%; VERPE (efficacy in %) ([13]; Table B4 comparison, application rate 1.25 g/ha): 100%; pest or weed control at 20 g/ha [13]: 100%; Post-emergence effect at 1.25 g/ha against SETVI in % [14]: 100%; pest or weed control at 5 g/ha [14]: 100%; pest or weed control at 20 g/ha [14]: 100%; compatibility with crop plants by comparison with a-27, a-29 or a generically encompassed structure (WO2002/098227) [15]: distinctly improved compatibility
2 | Cn1c(C(F)(F)F)cc(=O)n(-c2cc(Oc3ccccc3OCC(=O)OCC3CC3)c(C#N)cc2F)c1=O [I.9-1, Cyclopropylmethyl (2-{2-cyano-4-fluoro-5-[3-methyl-2,6-dioxo-4-(trifluoromethyl)-3,6-dihydropyrimidin-1(2H)-yl]phenoxy}phenoxy)acetate] | 0 | 100 | 100 | 100 | 100 | 100 | 80 | 100 | 100 | 100 | 100 | 100 | 100 | 100 | 100 | 80 | 100 | 100 | 80 | 100 | Post-emergence effect at 20 g/ha against TRZAS in % [1]: 20%; Post-emergence effect at 1.25 g/ha against ZEAMX in % [16]: 10%; Post-emergence effect at 5 g/ha against ZEAMX in % [16]: 20%; Post-emergence effect at 1.25 g/ha against ORYSA in % [17]: 0%; Post-emergence effect at 5 g/ha against ORYSA in % [17]: 0%; Post-emergence effect at 20 g/ha against ORYSA in % [17]: 0%; Post-emergence effect at 5 g/ha against ALOMY in % ([8]; 5 g/ha): 100%; Post-emergence effect at 5 g/ha against MATIN in % ([12]; 5 g/ha): 80%; pest or weed control at 20 g/ha [13]: 100%; Post-emergence effect at 1.25 g/ha against SETVI in % [14]: 80%; pest or weed control at 5 g/ha [14]: 100%; pest or weed control at 20 g/ha [14]: 100%
